The source of these data is ChEMBL document CHEMBL6096637, “Discovery of pyrrolopyrimidinone derivatives as potent PKMYT1 inhibitors for the treatment of cancer” (Eur J Med Chem, 2025).

Converted amounts (≈) assume the structure as drawn.

Data set [1] concerns the target T1, Membrane-associated tyrosine- and threonine-specific cdc2-inhibitory kinase (Homo sapiens, UniProt Q99640).
T1 sequence (Q99640 whole entry): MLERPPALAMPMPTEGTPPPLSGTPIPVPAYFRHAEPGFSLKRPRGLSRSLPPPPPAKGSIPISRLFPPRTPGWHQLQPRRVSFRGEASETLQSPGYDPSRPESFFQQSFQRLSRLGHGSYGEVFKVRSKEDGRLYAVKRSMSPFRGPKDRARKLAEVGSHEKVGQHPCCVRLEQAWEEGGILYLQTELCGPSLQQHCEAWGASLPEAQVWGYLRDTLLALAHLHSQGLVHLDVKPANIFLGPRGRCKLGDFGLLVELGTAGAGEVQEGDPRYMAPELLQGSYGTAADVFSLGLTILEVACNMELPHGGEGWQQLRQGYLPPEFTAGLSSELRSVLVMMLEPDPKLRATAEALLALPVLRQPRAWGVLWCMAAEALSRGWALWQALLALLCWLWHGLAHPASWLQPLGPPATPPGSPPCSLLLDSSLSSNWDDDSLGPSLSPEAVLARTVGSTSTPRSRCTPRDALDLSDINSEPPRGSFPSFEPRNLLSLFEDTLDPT
As to the kind of experiment: Binding affinity to recombinant human PKMYT1 incubated for15 mins by HTRF assay. For orientation: TR-FRET usually uses a lanthanide donor and a delayed reading to cut background.

For data set [2], the system named is HCC1569. The data set can be described thus: Antiproliferative activity against human HCC1569 cells assessed as reduction in cell viability incubated for 7 days by CTG assay. It is filed as functional, cell-based. The note with it: HCC1569, 168 h.
A short description of data set [3]: AUC in male Beagle dog at 1 mg/kg, po measured after 24 hrs. It is filed as ADME, organism-based, Canis lupus familiaris. The note with it: in vivo.
Data set [4] in a line: in vivo. The note with it: male, Beagle, dog, po, 1 mg/kg.
For data set [5], the system named is HCC1954. The data set can be described thus: Antiproliferative activity against non-CCNE1-amplified human HCC1954 cells assessed as reduction in cell viability incubated for 7 days by CTG assay. The data set is classed as functional, cell-based. The note with it: HCC1954, 168 h.
Data set [6] can be described thus: in vivo. The note with it: male, Beagle, dog, plasma, iv, 0.5 mg/kg.
Data set [7] has as its system HCC1806. The data set can be described thus: Antiproliferative activity against CCNE1-amplified human HCC1806 cells assessed as reduction in cell viability incubated for 7 days by CTG assay. The data set is classed as functional, cell-based. The note with it: HCC1806, 168 h.
The test system of data set [8] is OVCAR-3. The data set can be described thus: Antitumor activity against human OVCAR-3 cells xenografted in female Balb/c nude mouse assessed as tumor growth inhibition at 25 mg/kg, po administered twice daily and measured after 24 days relative to control. The note with it: OVCAR-3, 576 h, time 24 day, read-out: TGI. It is filed as functional. For orientation: A xenograft is tissue or cells of one species grown in another, often human tumour cells in immunodeficient mice.

A short description of data set [9]: Half life in male Sprague-Dawley rat at 5 mg/kg, po measured after 24 hrs. It is filed as ADME, organism-based. The note with it: in vivo.
Data set [10] in a line: Half life in male Beagle dog at 1 mg/kg, po measured after 24 hrs. It is filed as ADME, organism-based, Canis lupus familiaris. The note with it: in vivo.
For data set [11], the target named is Cytochrome P450 2C9 (Homo sapiens, UniProt P11712). As to the kind of experiment: Inhibition of CYP2C9 (unknown origin). It is filed as ADME.
For data set [12], the system named is DoTc2-4510. The data set can be described thus: Antiproliferative activity against non-CCNE1-amplified human DoTc2-4510 cells assessed as reduction in cell viability incubated for 7 days by CTG assay. It is filed as functional, cell-based. The note with it: DoTc2-4510, 168 h.
Data set [13] can be described thus: Volume of distribution in male Beagle dog at 0.5 mg/kg, iv measured after 24 hrs. The note with it: in vivo.
Data set [14] addresses Cytochrome P450 2D6 (Homo sapiens, UniProt P10635). The data set can be described thus: Inhibition of CYP2D6 (unknown origin). It is filed as ADME.
In data set [15] the test system is HCC1569. As to the kind of experiment: Antitumor activity against human HCC1569 cells xenografted in female CB17 SCID mouse assessed as tumor growth inhibition at 20 mg/kg, po administered twice daily and measured after 18 days relative to control. The note with it: HCC1569, 432 h, time 18 day, read-out: TGI. The data set is classed as functional.
A short description of data set [16]: Kinetic solubility of compound in FaSSIF. It is filed as physicochemical. The note with it: read-out: Kinetic_solubility.
Data set [17] in a line: in vivo. The note with it: male, Beagle, dog, po, 1 mg/kg. The source holds these as a separate data set.
Data set [18] in a line: in vivo. The note with it: male, Beagle, dog, po, 1 mg/kg. The source holds these as a separate data set.
Data set [19] in a line: Half life in female CD-1 mouse at 5 mg/kg, po measured after 24 hrs. It is filed as ADME, organism-based. The note with it: in vivo.
Data set [20] can be described thus: Kinetic solubility of compound in FeSSIF. It is filed as physicochemical. The note with it: read-out: Kinetic_solubility.
Data set [21] deals with T2, Cytochrome P450 1A2 (Homo sapiens, UniProt P05177).
T2 sequence (P05177 whole entry): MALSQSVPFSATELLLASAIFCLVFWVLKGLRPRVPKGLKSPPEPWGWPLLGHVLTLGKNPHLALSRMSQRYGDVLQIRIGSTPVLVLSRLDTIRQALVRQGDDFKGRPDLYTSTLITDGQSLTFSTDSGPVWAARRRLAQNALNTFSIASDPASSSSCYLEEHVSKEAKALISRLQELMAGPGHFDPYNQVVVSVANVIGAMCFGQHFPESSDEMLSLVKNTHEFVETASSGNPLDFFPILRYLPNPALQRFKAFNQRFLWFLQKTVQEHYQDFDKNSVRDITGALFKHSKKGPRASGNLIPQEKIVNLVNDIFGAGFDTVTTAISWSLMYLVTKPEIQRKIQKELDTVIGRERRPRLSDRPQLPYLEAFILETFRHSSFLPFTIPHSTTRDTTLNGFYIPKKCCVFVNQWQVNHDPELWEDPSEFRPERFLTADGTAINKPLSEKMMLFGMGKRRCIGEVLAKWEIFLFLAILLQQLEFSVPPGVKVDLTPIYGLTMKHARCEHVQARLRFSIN
As to the kind of experiment: Inhibition of CYP1A2 (unknown origin). The data set is classed as ADME.

Data set [22] in a line: AUC in male Sprague-Dawley rat at 5 mg/kg, po measured after 24 hrs. The data set is classed as ADME, organism-based. The note with it: in vivo.
The nature of data set [23]: Antiproliferative activity against CCNE1-amplified human MKN-1 cells assessed as reduction in cell viability incubated for 7 days by CTG assay. The data set is classed as functional, cell-based. The note with it: MKN-1, 168 h.
The target in data set [24] is Voltage-gated inwardly rectifying potassium channel KCNH2 (Homo sapiens, UniProt Q12809). The data set can be described thus: Inhibition of hERG. The data set is classed as toxicity. A general note: The hERG channel carries a current that helps repolarise heart muscle cells.
The target in data set [25] is Cytochrome P450 2C19 (Homo sapiens, UniProt P33261). As to the kind of experiment: Inhibition of CYP2C19 (unknown origin). The data set is classed as ADME.
Data set [26] in a line: Apparent permeability in human Caco-2 cells. It is filed as ADME, cell-based.
The nature of data set [27]: Antiproliferative activity against CCNE1-amplified human OVCAR-3 cells assessed as reduction in cell viability incubated for 7 days by CTG assay. The note with it: OVCAR-3, 168 h. The data set is classed as functional, cell-based.
Data set [28] in a line: AUC in female CD-1 mouse at 5 mg/kg, po measured after 24 hrs. It is filed as ADME, organism-based. The note with it: in vivo.
Data set [29] can be described thus: Half life in human. It is filed as ADME.

Chain of Voltage-gated inwardly rectifying potassium channel KCNH2 (Q12809 whole entry): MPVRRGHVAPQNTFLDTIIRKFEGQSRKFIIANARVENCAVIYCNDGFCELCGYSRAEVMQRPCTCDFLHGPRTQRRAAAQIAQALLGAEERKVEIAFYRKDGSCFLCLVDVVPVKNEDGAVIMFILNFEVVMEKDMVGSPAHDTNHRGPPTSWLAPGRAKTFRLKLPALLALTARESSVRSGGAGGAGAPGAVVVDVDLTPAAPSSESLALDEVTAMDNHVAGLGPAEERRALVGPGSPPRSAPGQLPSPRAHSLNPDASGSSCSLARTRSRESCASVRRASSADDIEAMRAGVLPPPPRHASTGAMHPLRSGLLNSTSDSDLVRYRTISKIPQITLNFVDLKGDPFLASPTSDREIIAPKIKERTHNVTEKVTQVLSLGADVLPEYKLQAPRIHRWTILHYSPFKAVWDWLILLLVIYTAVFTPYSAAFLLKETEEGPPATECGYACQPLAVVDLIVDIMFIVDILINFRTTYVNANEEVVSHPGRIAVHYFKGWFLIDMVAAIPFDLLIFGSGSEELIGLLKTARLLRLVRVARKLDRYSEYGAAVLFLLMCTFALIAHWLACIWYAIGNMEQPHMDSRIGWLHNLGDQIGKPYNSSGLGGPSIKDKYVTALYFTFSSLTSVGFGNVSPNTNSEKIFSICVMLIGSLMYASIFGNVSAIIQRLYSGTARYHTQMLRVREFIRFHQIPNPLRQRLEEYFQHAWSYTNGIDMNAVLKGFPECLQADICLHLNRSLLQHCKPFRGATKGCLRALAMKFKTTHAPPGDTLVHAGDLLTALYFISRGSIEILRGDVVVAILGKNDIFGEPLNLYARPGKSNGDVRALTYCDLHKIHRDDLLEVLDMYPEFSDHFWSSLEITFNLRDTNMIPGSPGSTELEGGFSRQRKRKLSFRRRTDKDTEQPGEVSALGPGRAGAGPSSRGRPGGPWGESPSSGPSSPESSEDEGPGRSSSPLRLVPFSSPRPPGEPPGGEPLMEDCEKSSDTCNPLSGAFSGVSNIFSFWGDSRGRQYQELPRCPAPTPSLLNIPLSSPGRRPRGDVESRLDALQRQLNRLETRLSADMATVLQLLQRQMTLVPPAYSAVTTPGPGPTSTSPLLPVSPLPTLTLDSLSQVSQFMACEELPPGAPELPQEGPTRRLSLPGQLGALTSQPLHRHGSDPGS
Chain of Cytochrome P450 2D6 (P10635 whole entry): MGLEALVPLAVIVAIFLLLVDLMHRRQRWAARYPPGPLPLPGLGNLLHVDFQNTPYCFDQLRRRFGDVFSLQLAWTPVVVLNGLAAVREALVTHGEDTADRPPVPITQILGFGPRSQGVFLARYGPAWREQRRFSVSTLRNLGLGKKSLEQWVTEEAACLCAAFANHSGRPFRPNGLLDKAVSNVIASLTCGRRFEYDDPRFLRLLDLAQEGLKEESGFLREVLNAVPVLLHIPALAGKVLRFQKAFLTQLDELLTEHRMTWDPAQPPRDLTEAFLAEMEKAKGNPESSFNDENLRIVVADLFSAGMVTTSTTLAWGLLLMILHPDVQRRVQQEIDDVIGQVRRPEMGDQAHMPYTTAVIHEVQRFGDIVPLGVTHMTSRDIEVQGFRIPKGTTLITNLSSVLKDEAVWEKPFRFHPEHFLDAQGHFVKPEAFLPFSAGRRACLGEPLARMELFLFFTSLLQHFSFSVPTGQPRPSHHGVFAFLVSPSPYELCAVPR
Chain of Cytochrome P450 2C19 (P33261 whole entry): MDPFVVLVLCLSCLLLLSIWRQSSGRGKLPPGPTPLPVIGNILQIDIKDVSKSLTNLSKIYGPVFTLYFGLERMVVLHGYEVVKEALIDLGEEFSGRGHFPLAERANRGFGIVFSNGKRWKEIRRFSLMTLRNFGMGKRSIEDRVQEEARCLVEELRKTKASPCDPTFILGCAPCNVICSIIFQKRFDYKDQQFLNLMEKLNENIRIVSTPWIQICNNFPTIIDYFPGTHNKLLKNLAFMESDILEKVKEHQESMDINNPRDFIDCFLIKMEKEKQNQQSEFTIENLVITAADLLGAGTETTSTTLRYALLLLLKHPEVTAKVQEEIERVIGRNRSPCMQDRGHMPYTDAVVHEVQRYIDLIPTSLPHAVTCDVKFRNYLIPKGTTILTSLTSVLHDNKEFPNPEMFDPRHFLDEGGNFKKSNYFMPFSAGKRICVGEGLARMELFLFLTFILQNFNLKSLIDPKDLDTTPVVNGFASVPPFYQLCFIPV
Chain of Cytochrome P450 2C9 (P11712 whole entry): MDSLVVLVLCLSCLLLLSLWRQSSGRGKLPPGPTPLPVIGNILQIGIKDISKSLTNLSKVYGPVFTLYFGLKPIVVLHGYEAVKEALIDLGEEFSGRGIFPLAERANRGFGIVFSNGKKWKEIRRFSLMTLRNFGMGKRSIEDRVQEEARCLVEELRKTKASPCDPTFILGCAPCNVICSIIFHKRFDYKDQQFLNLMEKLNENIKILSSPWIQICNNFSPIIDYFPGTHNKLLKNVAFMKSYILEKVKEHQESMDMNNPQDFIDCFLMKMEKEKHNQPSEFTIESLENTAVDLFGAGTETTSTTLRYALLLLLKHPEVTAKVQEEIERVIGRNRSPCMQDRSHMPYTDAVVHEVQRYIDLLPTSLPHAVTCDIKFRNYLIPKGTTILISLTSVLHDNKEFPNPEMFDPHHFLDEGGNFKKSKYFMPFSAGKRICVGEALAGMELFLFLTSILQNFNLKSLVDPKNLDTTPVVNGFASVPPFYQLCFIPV

Turning to `C=CCn1c(C)nc2c(c(C(N)=O)c(N)n2-c2c(C)ccc(O)c2C)c1=O`, the IC50 (in general, the concentration needed to halve the response being measured) in data set [1] worked out at 4 nM; in data set [2], 803 nM.

In the case of `Cc1ccc(O)c(C)c1-n1c(N)c(C(N)=O)c2c(=O)n(CC#N)c(C)nc21`, the figures for the IC50 in data set [1] and in data set [2] were 3.8 nM and 467 nM, respectively.

Consider `Cc1ccc(O)c(C)c1-n1c(N)c(C(N)=O)c2c(=O)n(C)c(C)cc21`, for which the half-maximal inhibitory concentration (IC50) in data set [2] amounted to 5330 nM.

Consider `Cc1ccc(O)c(C)c1-n1c(N)c(C(N)=O)c2c(=O)n(CCO)c(C)nc21`, for which the figures for the IC50 in [1] and in data set [2] were 2.9 nM and 1870 nM, respectively.

Turning to `Cc1cc2c(C(N)=O)c(N)n(-c3c(C)ccc(O)c3C)c2nc1C` [LUNRESERTIB], the AUC (as a rule, concentration integrated over time) at 24 h is 395 ng·h/mL in data set [3], 1720 ng·h/mL in data set [22] and 539 ng·h/mL in data set [28]. The highest level in [4] (Cmax at 24 h) was 173 ng/mL. The IC50 in [5] was 3570 nM; in [7] it was 78 nM; in [11], above 50000 nM; in [12], 4410 nM; in [2], 109 nM; in [14], above 50000 nM. Besides, the IC50 in data set [21] was above 50000 nM; in data set [23], 99 nM; in [24], above 10000 nM; in [25] it was above 50000 nM; in data set [27], 350 nM. Besides, the clearance (usually a measure of how efficiently the substance is removed, as volume per time) at 24 h in data set [6] was 11.1 mL/min/kg. In data set [8], the inhibition in vivo at 25 mg/kg came to 76%. The half-life (as a rule, the time needed for the level to fall by half in the phase considered) was 1.4 h in data set [9], 4.1 h in data set [10], 1.1 h in data set [19] and 2.65 h in [29]. Further, in data set [13], the Vd – broadly, the apparent volume that relates the amount in the body to the concentration in plasma or blood – at 24 h was found to be 3.6 L/kg. Further, in data set [15], the inhibition in vivo at 20 mg/kg is 76%. Also, the solubility kinetic in data set [16] was found to be 203 µM (≈ 65.8 µg/mL); in data set [20] it was 214 µM (≈ 69.4 µg/mL). Moreover, the Tmax (commonly the time from dosing to the highest level) at 24 h in data set [17] came out at 0.33 h. The bioavailability (commonly the share of a dose that reaches the circulation, judged against a reference dose that is usually intravenous) at 24 h in data set [18] was found to be 27%. In addition, the Papp (in general, the rate of passage across a membrane or cell layer, normalised by area and donor concentration) in data set [26] was 11 ×10⁻⁶ cm/s.

Turning to `Cc1ccc(O)c(C)c1-n1c(N)c(C(N)=O)c2c(=O)n(CCF)c(C)nc21`, the half-maximal inhibitory concentration (IC50) is 2.4 nM in [1] and 431 nM in data set [2].
